Our source for the melting point values is a melting point compilation (Tetko et al.; mined from patent text by program, amines drawn as free bases though some values may be those of a salt).

One may read the melting point as the temperature, or range, at which the solid turns liquid. `CCS(=O)(=O)Nc1cc(-c2ncnc(C(F)(F)F)c2Cl)c(F)cc1C#N` displayed a melting point of 191 to 194 °C. As for `O=C(O)Cc1ccc(NC(=O)C(COc2ccccc2Cl)NS(=O)(=O)c2ccc(I)cc2)cc1` (racemic), the melting point lay within 198 to 200 °C. The figure for `Cc1c(C)c2c(c(C)c1NC(=O)CC(C)(C)C)C(c1ccc(C(C)CCO)cc1)CO2` (stereo not drawn) is 145 to 147 °C.

`CCOC(=O)C(=O)CC(=O)c1cn(Cc2ccc(O)cc2)c2ccccc2c1=O` displayed a melting point of 179 to 181 °C. Then `O=C(Nc1nonc1-c1ccccc1)NC1CCC(C(F)(F)F)CC1` (stereo not drawn), with 212 °C. For `Cn1ccnc1S[Si](C)(C)C`, the melting point lay within 49 to 52 °C. Regarding `CC#Cc1cn(C2OC(COC(C)=O)C(OC(C)=O)C2OC(C)=O)c(=O)[nH]c1=O` (stereo not drawn), the melting point fell in the range of 150 to 157 °C. In turn, `NC(=O)c1n[nH]c(S(=O)(=O)c2ccc(Br)cc2)n1` yielded a melting point of 130 to 136 °C. In the case of `CCN1CCN(c2cc3c(cc2F)c(=O)c(C(=O)O)cn3CC)CC1C` (stereo not drawn), the melting point lay within 203 to 205 °C. For the compound `OCC1OC(OCc2ccccc2)C(OCc2ccccc2)C(OCc2ccccc2)C1OCc1ccccc1` (stereo not drawn), the melting point is 99 to 101 °C. The figure for `CC(=O)c1ccc2c(c1)S(=O)(=O)c1ccccc1O2` is 163 to 165 °C; for `N#CC=Cc1ccc(CBr)cc1` it is 105 to 107 °C; for `O=C(Nc1ccccc1)c1cc(NC(=S)Nc2cc(Cl)cc(Cl)c2)ccc1F` it is 195 to 196 °C. In turn, `N#CCN1c2ccc([N+](=O)[O-])cc2CS1(=O)=O` showed a melting point of 200 to 202 °C.

`CCC(=O)C1=C(O)CC(c2cccc(Oc3ccc(S(C)(=O)=O)cc3)c2)CC1=O` (stereo not drawn) registered a melting point of 136 to 138 °C. `CC(=O)NCCSc1cc(N)c([N+](=O)[O-])cc1N` yielded a melting point of 162 °C. Regarding `COc1ncc(C(=O)O)cc1OC1CCCC1`, the melting point is 191 to 192 °C. The compound `CCCN=C(N)Nc1ccnc(S(C)=O)n1` (stereo not drawn) came in with a melting point of 179 to 180 °C. Turning to `Cc1ccc2c(c1)CC(n1ccnc1C(N)=O)C2=O` (stereo not drawn), the melting point was 196 °C. The figure for `CCOC(=O)c1cnc2sc(-c3ccc([N+](=O)[O-])cc3)c(C)c2c1O` is 260 to 261 °C; for `CCCCN1CCCC1Cc1cccc(NC(N)=O)c1` (stereo not drawn) it is 80 to 83 °C; for `CCCC12CCC(c3ccc(Cl)cc3)(OC1)OC2` it is 94 °C. The figure for `CCC1(C)CC2(NC(=O)N(C)C2=O)C(C)C(C)(CC)N1` (stereo not drawn) is 137 to 142 °C; for `Cn1cnc2nc(-c3ccc(Cl)cn3)nn2c1=S` it is > 300 °C. Then `COC(=O)C(=O)c1c[nH]c2ccccc12`, with 226 to 228 °C; and `O=C(O)[C@H](Cc1ccc(C(F)(F)F)cc1)[C@@H](O)c1cccc(F)c1` (racemic), with 128 to 129 °C; and `COc1ccc(C(=O)C2=C(c3ccccc3)CCc3ccccc32)cc1`, with 106 to 107 °C. Compound `O=C(O)CN1CCNCC1` gave a melting point of 130 to 132 °C.

With `CCCCCCCCCCCCC1=C(OC)C(=O)c2ccccc2C1=O`, the melting point lay within 61 to 63 °C. `CC(C)(C)c1cc(CCc2ccccc2NC(=O)NC2CCC(C(C)(C)C)CC2)cc(C(C)(C)C)c1O` (stereo not drawn): the melting point lay in the range of 206 to 208 °C. As to `CCCOc1c(-c2cc(C=CC(=O)O)ccc2O)cc(C(C)(C)C)cc1C(C)(C)C`, the melting point was in the range of 104 to 106 °C.

For the compound `CN1c2c(occ(CO)c2=O)-c2ccccc2S1(=O)=O`, the melting point is 201 to 205 °C. As for `Cc1ccc(NC(=O)C2CC2)c(-c2nc(C(F)(F)F)cs2)c1`, the melting point was 155 to 156 °C. The figure for `O=c1oc(Cc2ccc(Oc3ccccc3)cc2)nn1-c1ccccc1Cl` is 85 °C; for `NCCc1cccc(Cn2ccc(OCc3ccc(F)cc3F)c(Br)c2=O)c1` it is 70 to 74 °C; for `CN1CCN(c2ccc(C(=O)NC3(C(=O)NCC#N)CCCCC3)cc2)CC1` it is 218 to 220 °C. `Nc1ncccc1C(=O)NCC1CCN(C[C@H]2COc3ccc(Cl)cc3O2)CC1` returned a melting point of 150 to 152 °C. With `CC(=O)c1ccc(C2=NC[C@@H](OC(=O)Nc3ccccc3)[C@H](c3ccccc3)O2)cc1` (racemic), the melting point was 168 °C. The compound `CC(C)CNc1cc(C(=O)O)cc(S(N)(=O)=O)c1Sc1ccc(N)cc1` displayed a melting point of 250 to 252 °C. For the compound `O=C(NCCCc1ccc(CC(CCCc2ccccc2)(C(=O)OCc2ccccc2)C(=O)OCc2ccccc2)cc1)c1ccc(-c2ccccn2)cc1`, the melting point fell in the range of 118 to 120 °C. `O=C(O)C1=C(S(=O)(=O)c2ccccc2)CC2CC(=O)C12` (stereo not drawn) displayed a melting point of 205 to 207 °C.

In the case of `CCn1ncnc1COc1nc2c(nnn2-c2ccccc2)c2ccccc12`, the melting point lay in the range of 192 to 195 °C. As for `Fc1ccc(C2C=C(C(F)(F)F)NC3=C2SCC=C3)cc1Br` (stereo not drawn), the melting point is 195 to 198 °C. As for `O=c1cnn(-c2ccc(C(c3ccc(Cl)cc3)c3cc(-c4ccccc4)cs3)c(Cl)c2)c(=O)[nH]1` (stereo not drawn), the melting point was determined as 90 °C.

`O=C(CNC(=O)c1ccc(C2=NOC(c3cc(Cl)cc(C(F)(F)F)c3)(C(F)(F)F)C2)c2ccccc12)NCC(F)(F)F` (stereo not drawn) gave a melting point of 107 to 108 °C. In the case of `CS(=O)(=O)c1ccc(-c2cnn(CC(F)(F)F)c(=O)c2SCc2ccccc2)cc1`, the melting point is 108 to 111 °C. For `CC(=CC(=O)O)C(=O)NN`, the melting point lay in the range of 281 to 284 °C. Regarding `CCOC(=O)c1cc(C(=O)NC)nc(C(=O)NC)c1N`, the melting point fell in the range of 185 to 186 °C.

As to `COc1cc(C(=O)NS(=O)(=O)c2ccccc2C)ccc1Cn1ncc2ccc(NC(=O)CC3CCCC3)cc21`, the melting point lay in the range of 184 to 185 °C.

For the compound `CC(=O)N[C@@H](C)COc1cc2oc(-c3ccc(OC[C@H]4CC4(F)F)c(F)c3)nc2cn1`, the melting point was found to be 181 °C. `CCc1cc(-n2cncn2)ncn1` showed a melting point of 75 to 76 °C. As to `Cc1c(C)c(N2Cc3ccccc3C2)c(C)c2c1OC(C)(C)C2c1ccccc1` (stereo not drawn), the melting point lay within 164 to 166 °C. Take `CCOC(=O)c1nnc2ccc(-c3ccco3)cc2c1O`: the melting point fell in the range of 198 to 200 °C. The figure for `CC(C)(C)OC(=O)N1C[C@@H](CC(=O)COCC[Si](C)(C)C)[C@H]2NC(=O)[C@H]21` is 89 to 91 °C.

As to `O=C1CC(Sc2ccccc2)C(O)(c2ccccc2)C(Sc2ccccc2)C1` (stereo not drawn), the melting point lay in the range of 126 to 127 °C. The figure for `CCc1nc(C)n2nc(C(=O)O)nc2c1Cc1ccc(-c2ccccc2-c2nnn[nH]2)cc1` is 194 to 198 °C; for `COC(=O)c1ccc(Cl)c([N+](=O)[O-])c1Cl` it is 72 to 74 °C; for `COC(=O)CCN(C)CCNC(=O)c1nc(Cl)c(N)nc1N` it is 136 to 137 °C.

With `O=C(O)CC(Cc1ccccc1[N+](=O)[O-])C(=O)O` (stereo not drawn), the melting point was in the range of 135 to 138 °C. `OC1CSC(Oc2ccc(-c3ccncc3)nc2)C(O)C1O` (stereo not drawn) gave a melting point of 248 °C. On to `Cc1cc(C(=O)C(C#N)C(=O)Nc2ccccc2)c(C)n1C` (stereo not drawn), for which the melting point fell in the range of 158 to 160 °C.

As to `CCCCCC12CCC(C(=O)O)(CC1)CC2`, the melting point was found to be 160 °C.

Regarding `CCN1CCC2(c3cccc(O)c3)Cc3[nH]c(C(=O)Nc4ccccc4)c(C)c3CC2C1` (stereo not drawn), the melting point was in the range of 271 to 272 °C. Compound `O=C(O)c1ccccc1C(=O)OCC1CN(C(=O)Oc2ccccc2)CCC1c1ccc(F)cc1` (stereo not drawn) yielded a melting point of 149 to 151 °C. The compound `Nc1nc(COc2cccc(Cl)c2Cl)nc2nccnc12` registered a melting point of 216 to 218 °C.

`O=C1CCC(c2ccc(Cl)c(Cl)c2)c2ccccc21` (stereo not drawn) came in with a melting point of 99 to 101 °C.

`COc1ccc(CCN2C=CC=C3C2=Nc2cc(C)ccc2S(=O)(=O)N3C)cc1` gave a melting point of 128 °C. `CC1C(=O)Oc2c1cccc2S(=O)(=O)c1ccccc1Cl` (stereo not drawn) returned a melting point of 94 to 96 °C. `CCN(CC)C(=O)COC(=O)c1cc(S(N)(=O)=O)c(Cl)cc1NCc1ccco1` gave a melting point of 135 to 136 °C. The compound `c1ccc2c(c1)CSO2` displayed a melting point of 87 °C. The figure for `CCCCCCC(N)C(C)O` (stereo not drawn) is 81 to 86 °C; for `COc1ccc(-c2cccnc2)cc1` it is 62 to 63 °C. The compound `CC(Cn1ncc2ccc3c(c21)NC(=O)CO3)NC(=O)OC(C)(C)C` (stereo not drawn) gave a melting point of 147 to 148 °C. The figure for `O=C(CC1CCCCC1)Nc1c(Cl)ccc2nc(N3CC[C@H](NCCc4nn[nH]n4)C3)ccc12` is 220 to 221 °C. Then `Cc1ccc(-c2cc(CO)c3[nH]c(=O)ccc3c2)c(C)n1`, with 218 to 221 °C; and `COc1cc(C=O)ccc1OCc1csc(N2CCOCC2)n1`, with 122 to 123 °C. In turn, `CC(O)c1ccc(C2(C(C)(C)C)OCCO2)cc1` (stereo not drawn) registered a melting point of 67 to 70 °C. Consider `COc1cc2c(cc1OC)-c1cc(Nc3ccc(C)cc3C)nc(=O)n1CC2`, for which the melting point was in the range of 239 to 241 °C. With `Nc1cc(Cl)c(Cl)cc1C(=O)O`, the melting point was 196 to 203 °C. Take `O=C(Nc1ccc(O)cc1)c1cc(O)cc(O)c1`: the melting point came out at 266 °C.

The compound `Cc1cc(C)cc(C(=O)c2c(C(C)C)c(=O)[nH]c(=O)n2C/C=C/CN=[N+]=[N-])c1` registered a melting point of 126 to 127 °C. For the compound `FC(F)(F)c1nnc(-c2ccc(Cl)cc2)n1-c1ccc(Cl)cc1`, the melting point was determined as 184 °C. `Cc1ccccc1C(=O)CN1C(=O)C(NC(=O)c2cc3ccccc3[nH]2)N=C(C2CCCCC2)c2cccc(C)c21` (racemic) returned a melting point of 127 to 145 °C. As for `CCOC(=O)c1nc2ccc([N+](=O)[O-])cc2c(=O)[nH]1`, the melting point fell in the range of 227 to 228 °C. Regarding `CCOC(=O)c1ccc(CSc2nnc(C)s2)cc1`, the melting point was 55 to 58 °C. `CCOc1cc2ncc(C#N)c(Nc3ccc(Sc4nccn4C)c(Cl)c3)c2cc1OCC` had a melting point of 285 to 290 °C. `CC(C)c1nc(CN2C(=O)C3(COc4cc5c(cc43)OCO5)c3c(Cl)cccc32)cs1` (stereo not drawn) registered a melting point of 147 to 148 °C. The figure for `CCOC(=O)[C@H](Cc1ccc(-c2c(C(F)(F)F)cc(C)n(C)c2=O)cc1)NC(=O)c1c(Cl)cccc1Cl` is 86 to 91 °C.
